Data reported in ChEMBL document CHEMBL1201862, “PubChem BioAssay data set” (2004).
The source made the active and inactive calls. No rule for the calls is given here.

Legend:
[1] = target: T1, High affinity choline transporter 1 (Homo sapiens, UniProt Q9GZV3); assay: human choline transporter blockers, potency – cell-based, 5-point CRC, membrane potential dye, dose response (AID 504840); assay type: functional
T1 sequence (Q9GZV3 whole entry): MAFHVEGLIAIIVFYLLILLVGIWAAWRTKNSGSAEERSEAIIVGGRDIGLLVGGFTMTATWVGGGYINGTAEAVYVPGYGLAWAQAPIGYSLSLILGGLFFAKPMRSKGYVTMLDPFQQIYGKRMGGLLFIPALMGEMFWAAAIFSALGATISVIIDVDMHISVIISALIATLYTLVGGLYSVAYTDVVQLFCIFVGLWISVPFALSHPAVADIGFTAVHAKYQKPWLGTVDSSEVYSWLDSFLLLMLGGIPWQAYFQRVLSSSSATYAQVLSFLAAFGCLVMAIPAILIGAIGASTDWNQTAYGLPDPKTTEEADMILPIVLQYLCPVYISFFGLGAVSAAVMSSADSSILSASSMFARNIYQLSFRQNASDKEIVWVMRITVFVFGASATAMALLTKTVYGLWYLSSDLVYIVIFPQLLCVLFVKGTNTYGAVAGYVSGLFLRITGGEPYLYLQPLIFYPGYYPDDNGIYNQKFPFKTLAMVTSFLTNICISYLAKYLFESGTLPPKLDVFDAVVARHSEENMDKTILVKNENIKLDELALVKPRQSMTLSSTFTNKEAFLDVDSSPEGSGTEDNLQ

[2] = target: T1, High affinity choline transporter 1; assay: human choline transporter blockers, potency – cell-based, 10-point CRC, membrane potential dye, dose response (AID 588401); assay type: functional;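 also: membrane potential dye fluorescence of choline-evoked depolarization via CHT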

- IC50 [1]: 9.45 µM (active)
- IC50 [2]: 6.48 µM (active)
SMILES: CC(/C=C1\SC(=S)N(CC(=O)O)C1=O)=C\c1ccccc1
